“And” between values parts separate entries of the source, which are not always exact repeats. Identical values can stand only once. Like-named read-outs stand apart in the source and are kept apart here.
Legend:
eIF1A = molecular target: T1, eIF1A (Homo sapiens, UniProt P47813); type: binding; conditions: for fluorescence ratio, eIF1A: background-corrected, relative to DMSO or lowest 1Ai concentration, replicate columns
T1 construct: His-bdSUMO (cleaved yes); made in house; host or cells: E. coli BL-21

[1] = test system: IRF7 5'UTR firefly luciferase reporter in HEK293T cells; conditions: for Reference vs IRF7 (Final data, Fig. 1E): 1/Result, relative to DMSO; for LONG (summary - All), normalized to DMSO / SHORT (summary - All), normalized to DMSO: individual replicates, outliers excluded, DMSO = 1; for average ( long vs short ratio): summary - All;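 for all read-outs here: luciferase signal corrected by a co-transfected GFP reporter for transfection efficiency, read after overnight compound exposure, with Long and Short reporters differing in 5'UTR length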
[2] = test system: CUG/GUG vs AUG start codon luciferase reporters in HEK293T cells; experiment: Near-cognate AUG starting codon fidelity reporter assay (GUG, CUG vs AUG); type: cell-based; conditions: for average CUG and GUG / average CUG and GUG relative to DMSO / CUG Average / GUG Average: NUG experiment; for CUG Average: CUG vs AUG reporter; for GUG Average: GUG vs AUG reporter; for NUG (Final data, Fig. 1E): average CUG and GUG relative to DMSO, 20 µM overnight; for GUG vs AUG data (%) / GUG vs AUG (%) Average: compound at 20uM; for GUG vs AUG data (%): individual repeat; for GUG vs AUG (%) Average: summary average of repeats, DMSO control average […]
RPS10 = molecular target: T2, RPS10 (Homo sapiens, UniProt P46783); type: binding
T2 construct: made in house; host or cells: E. coli BL-21

[3] = test system: cap-proximal AUG GFP reporter in HEK293T cells; type: cell-based; conditions: GFP WB densitometry; 20 µM overnight; dmso 0.965946;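 note: ratio of upstream to downstream AUG initiation products on GFP Western blot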
[4] = summary table, fluorescence binding assay, read-out: IC50 concentration (µM), RPS10

T1 sequence (P47813 whole entry): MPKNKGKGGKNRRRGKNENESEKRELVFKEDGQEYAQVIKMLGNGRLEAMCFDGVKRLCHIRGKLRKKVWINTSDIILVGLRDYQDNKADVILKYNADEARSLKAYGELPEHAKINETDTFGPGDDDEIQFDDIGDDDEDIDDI

Row | SMILES | fluorescence ratio, eIF1A (eIF1A; 1Ai conc. 0.25 uM) | fluorescence ratio, eIF1A (eIF1A; 1Ai conc. 0.5 uM) | fluorescence ratio, eIF1A (eIF1A; 1Ai conc. 1 uM) | fluorescence ratio, eIF1A (eIF1A; 1Ai conc. 2 uM) | fluorescence ratio, eIF1A (eIF1A; 1Ai conc. 4 uM) | fluorescence ratio, eIF1A (eIF1A; 1Ai conc. 8 uM) | fluorescence ratio, eIF1A (eIF1A; 1Ai conc. 16 uM) | fluorescence ratio, eIF1A (eIF1A; 1Ai conc. 32 uM) | fluorescence ratio, eIF1A (eIF1A; 1Ai conc. 64 uM) | fluorescence ratio, eIF1A (eIF1A; 1Ai conc. 256 uM) | Reference vs IRF7 (Final data, Fig. 1E) ([1]; 20 µM) | LONG (summary - All), normalized to DMSO ([1]; Long reporter, 20 µM) | SHORT (summary - All), normalized to DMSO ([1]; Short reporter, 20 µM) | average ( long vs short ratio) ([1]; 20 µM) | average CUG and GUG [2] | average CUG and GUG relative to DMSO [2] | CUG Average [2] | GUG Average [2] | NUG (Final data, Fig. 1E) [2] | GUG vs AUG data (%) [2] | also measured
1 | Cc1ccc(C(=O)c2cc(O)c(O)c([N+](=O)[O-])c2)cc1 [1Ai-5576] | 0.7537 and 0.6505 | 0.6672 and 0.6249 | 0.6232 and 0.5058 | 0.6427 and 0.4189 | 0.6101 and 0.3891 | 0.5237 and 0.3506 | 0.4763 and 0.3127 | 0.3344 and 0.3594 | 0.3785 and 0.2952 | 0.2822 and 0.2602 | 1.896 | 0.11 and 0.20 and 0.17 | 0.23 and 0.53 and 0.25 and 0.22 | 0.527 | 6.465 | 1.433 | 9.471 | 3.46 | 1.433 | 2.91% and 4.78% and 2.69% | IC50 (eIF1A; eIF1A, from the titration data, read-out: IC50 (eIF1A titration block)): 0.926 µM; IC50 (eIF1A; summary table, fluorescence binding assay, read-out: IC50 concentration (µM), WT eIF1A): 0.9 µM; Long 5'UTR reporter luciferase activity, normalized to DMSO (=1), single replicates ([1]; compound at 20 µM, left data block (Long), source data of Fig 1C): 0.1126 and 0.2 and 0.1668 and 0.166; CUG vs AUG (%) ([2]; CUG start codon reporter relative to AUG reporter (AUG = 100), compound at 20uM (summary head), single-experiment calculation): 5.985%; GUG vs AUG (%) ([2]; GUG start codon reporter relative to AUG reporter (AUG = 100), compound at 20uM (summary head), single-experiment calculation): 2.005%; GUG vs AUG (%) Average [2]: 3.46%; RPS10 fluorescence ratio to control (RPS10; 1Ai conc. 0.25 uM): 1.2176; RPS10 fluorescence ratio to control (RPS10; 1Ai conc. 0.5 uM): 1.045; RPS10 fluorescence ratio to control (RPS10; 1Ai conc. 1 uM): 1.349; RPS10 fluorescence ratio to control (RPS10; 1Ai conc. 2 uM): 1.319; RPS10 fluorescence ratio to control (RPS10; 1Ai conc. 4 uM): 1.348; RPS10 fluorescence ratio to control (RPS10; 1Ai conc. 8 uM): 0.4488; RPS10 fluorescence ratio to control (RPS10; 1Ai conc. 16 uM): 0.3698; RPS10 fluorescence ratio to control (RPS10; 1Ai conc. 32 uM): 0.4065; RPS10 fluorescence ratio to control (RPS10; 1Ai conc. 64 uM): 0.1627; RPS10 fluorescence ratio to control (RPS10; 1Ai conc. 256 uM): 0.3279; IC50 (RPS10; read-out: IC50 (line under RPS10 binding data)): 7.4 µM; IC50 (RPS10; read-out: RPS10 IC50): 7.4 µM; IC50 (RPS10; [4]): 7.4 µM; US/DS ratio, average [3]: 0.8188
2 | O=C(CSc1nc(-c2ccccc2)cn1-c1ccccc1)NC(=O)Nc1ccccc1 [1Ai-2383] | 0.9677 and 0.9798 | 0.9803 and 0.9815 | 1.02 and 0.9558 | 1.009 and 0.948 | 0.993 and 0.9579 | 0.9438 and 0.997 | 1.039 and 1.06 | 1.096 and 1.111 | 1.232 and 1.231 | 1.523 and 1.464 | 1.265 | 0.91 and 0.57 and 0.60 | 0.93 and 0.86 and 0.76 | 0.790 | 5.372 | 1.191 | 8.595 | 2.149 | 1.191 | 2.05% and 2.35% and 1.83% and 2.36% | WT eIF1A IC50 (eIF1A; fluorescence binding): No binding; IC50 concentration (µM), WT eIF1A (eIF1A; summary table, fluorescence binding assay): No binding; Long: Normalized to average DMSO ([1]; data section, Long reporter, GFP-corrected, 20 µM, per experiment, includes values excluded as outliers): 0.9138 and 0.5713 and 0.6011 and 0.6048; Short: Normalized to average DMSO ([1]; data section, Short reporter, GFP-corrected, 20 µM, per experiment, includes values excluded as outliers): 0.9324 and 0.8573 and 0.5797 and 0.7642; GUG vs AUG (%) Average [2]: 2.15%; RPS10 fluorescence ratio to control (RPS10; 1Ai conc. 0.25 uM): 1.003; RPS10 fluorescence ratio to control (RPS10; 1Ai conc. 0.5 uM): 0.5095; RPS10 fluorescence ratio to control (RPS10; 1Ai conc. 1 uM): 0.4927; RPS10 fluorescence ratio to control (RPS10; 1Ai conc. 2 uM): 0.4799; RPS10 fluorescence ratio to control (RPS10; 1Ai conc. 4 uM): 0.3805; RPS10 fluorescence ratio to control (RPS10; 1Ai conc. 8 uM): 0.08815; RPS10 fluorescence ratio to control (RPS10; 1Ai conc. 16 uM): 0.2868; RPS10 fluorescence ratio to control (RPS10; 1Ai conc. 32 uM): 0.02728; RPS10 fluorescence ratio to control (RPS10; 1Ai conc. 64 uM): 0.2465; RPS10 fluorescence ratio to control (RPS10; 1Ai conc. 256 uM): 0.3391; IC50 (RPS10; fluorescence binding, read-out: RPS10 IC50): 0.7 µM; IC50 (RPS10; source data Fig. 2B, read-out: IC50 (line under RPS10 binding data)): 0.66 µM; IC50 (RPS10; [4]): 0.661 µM; US/DS ratio, average [3]: 0.4898

— article PMC12216609, “Inhibitors of eIF1A-ribosome interaction unveil uORF-dependent regulation of translation initiation and antitumor and antiviral effects” (The EMBO Journal, 2025)
